In experiment [1] the target is T1, CRAC channel (endogenous SOC in HEK293 cells) (Homo sapiens, UniProt Q96D31).
T1 construct: endogenous in cells; host or cells: HEK293 (ECACC)
Nature of the experiment: HEK Calcium Influx Assay (FLIPR). Type of experiment: cell-based. The method, then:
The effect of compounds of the invention on intracellular [Ca^2+] was tested in the HEK293 cell line (ECACC). HEK293 cells were cultured in DMEM/F12/Glutamax (Gibco) containing 10% FCS (Gibco), and maintained at 37° C., 5% CO2. Cell were split twice a week [3*10^6 (Mon-Thu) and 1*10^6 (Thu-Mon) cells/50 ml medium in T-175 ZK culture flasks, respectively]. Twenty four hours pre-experiment, cells were seeded on 96 well plates (Poly-D-Lysine 96well Black/Clear Plate, BD Biocoat REF 356640) at a density of 40,000 cells/well in DMEM/F12 (Gibco) containing 10% FCS (Gibco), and maintained at 37° C., 5% CO2. Prior to store-depletion, cell culture medium was removed and cells were loaded with the a Calcium-sensitive fluorescent dye comprised within the Calcium-4-assay kit (Molecular Devices) in nominally Ca^2+-free HBS buffer (140 mM NaCl, 4 mM KCl, 0.2 mM MgCl2, 11 mM D-glucose, and 10 mM HEPES, pH 7.4) according to manufacturer's instruction for 60 min at 37° C., 5% CO2. Passive depletion of intracellular Ca^2+-stores was then triggered by employing the SERCA inhibitor thapsigargin (2 μM final) for 10 min in the dark (RT). To prevent immediate Ca^2+-entry via the activated Store-operated channels (SOCs), cells were maintained in Ca^2+-free HBS buffer comprising 100 μM EGTA during store-depletion. Intracellular changes in [Ca^2+] were subsequently monitored with the FLIPR device (Molecular Devices). In brief, baseline imaging post-store depletion was allowed for 1 min before adjusting the extracellular buffer to 3 mM CaCl2. Increases in intracellular [Ca^2+] due to pre-activated SOC channels were monitored for 15 min until intracellular Ca^2+ levels had declined into a steady-state. Finally, compounds were administered and Ca^2+ signals were recorded for additional 10 min. Inhibition of endogenous SOC in HEK293 cells was quantified employing the average Ca^2+ signal measured from 9.5-10 min post-administration. Zero percent inhibition (MAX) was defined as the Ca^2+ signal recorded from wells to which DMSO-only had been added instead of compound. Hundred percent inhibition (MIN) was defined as the signal obtained from wells in which cells haven't been treated with TG prior to Ca^2+ addition and to which DMSO-only had been added instead of compound. For routine IC50 determinations of compounds, 8 concentrations of a serial dilution (1:3.16) were tested, starting off from 10 μM. Reliable IC50's could consequently be determined only, if they were at least sub 2.5-3 μM.

Experiment [2] deals with Interleukin-2 (IL-2) production/release in Jurkat T cell line. Kind of experiment: Jurkat IL-2 Production Assay. Type of experiment: cell-based. To be noted: Homo sapiens; Jurkat T cells, PHA stimulation 22 hours. The method, then: Jurkat IL-2 Production Assay
The effect of compounds of the invention on Interleukin-2 (IL-2) production/release was tested in the Jurkat T cell line (ECACC) clone E6-1. Jurkat T cells were cultured in DMEM/F12/Glutamax (Gibco) containing 10% FCS (Gibco), and maintained at 37° C., 5% CO2. Cell were split twice a week [5*10^6 (Mon-Thu) and 1*10^7 (Thu-Mon) cells/50 ml medium in T-175 ZK culture flasks, respectively]. Prior to experiment, cells were seeded on 96 well plates (Cellstar 96 Well; Cat No. 655180, Greiner bio-one) at a density of 5*10^5 cells/well in DMEM/F12/Glutamax (Gibco) containing 10% FCS (Gibco), and incubated for 60 min at 37° C., 5% CO2. Subsequently, compounds were added and cells were allowed to incubate for 30 min at 37° C., 5% CO2. Cells were then stimulated with 15 μg/ml Phytohemagglutinin (PHA; Sigma) for 22 hours at 37° C., 5% CO2. Before sampling of the supernatants, cells were spun down (200*g/5 min/RT). The amount of IL-2 released into the supernatant was quantified with the human IL-2 AlphaLisa kit (Perkin Elmer) according to manufacturer's instructions. Luminescence proximity measurements were carried out in the Synergy H4 reader (BioTek) employing the fluorescence setting of the reader (ex: 680/30 nm; em: 620/40 nm). Inhibition of IL-production/release in/from Jurkat T cells was quantified as follows: Zero percent inhibition (MAX) was defined as the [IL-2] determined in supernatants derived from cells to which PHA & DMSO-only had been added instead of compound. Hundred percent inhibition (MIN) was defined as the [IL-2] determined in supernatants derived from cells that had been pre-treated with 1 μM CyclosporineA (Sigma) before the addition of 15 μg/ml PHA. For routine IC50 determinations of compounds, 8 concentrations of a serial dilution (1:3.16) were tested, starting off from 10 μM.

Setting [3] is: thapsigargin store depletion, read-out: % inhib. [@ 10 μM] FLIPR.
Where [4] appears, read: numeric values of Table 2, read-out: inhib. [@ 10 μM] FLIPR.

These results are taken from US20150166505A1, “PYRIDINYL-SUBSTITUTED PYRAZOLYL CARBOXAMIDES” (GRÜNENTHAL GMBH, priority 2013, published 2015).

Counter-ions that a name gives are not always drawn. Like-named read-outs stand apart in the source and are kept apart here.

T1 sequence (Q96D31 whole entry): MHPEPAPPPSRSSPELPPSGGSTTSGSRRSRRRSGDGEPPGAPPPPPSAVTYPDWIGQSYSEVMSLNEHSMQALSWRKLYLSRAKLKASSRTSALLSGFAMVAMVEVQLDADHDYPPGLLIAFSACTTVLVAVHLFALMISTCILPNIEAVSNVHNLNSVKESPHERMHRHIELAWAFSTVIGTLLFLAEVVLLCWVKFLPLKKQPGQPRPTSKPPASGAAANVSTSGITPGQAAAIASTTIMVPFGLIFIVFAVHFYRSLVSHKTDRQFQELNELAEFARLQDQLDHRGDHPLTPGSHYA

Consider `Cn1nc(C(=O)Nc2c(F)cccc2F)cc1-c1cnc(C2CC2)cc1C(F)(F)F` [Example 48, 5-[6-Cyclopropyl-4-(trifluoromethyl)-pyridin-3-yl]-N-(2,6-difluoro-phenyl)-1-methyl-1H-pyrazole-3-carboxylic acid amide], for which the inhibition at 10 µM in experiment [1] (setting [3]) was greater than 70%. Moreover, the half-maximal inhibitory concentration (IC50) (in general, the point on the concentration scale where inhibition reaches its midpoint) in experiment [2] was in the range of 0.5 to 1 µM.

As to `COc1cc(Cl)c(-c2cc(C(=O)Nc3c(F)cccc3F)nn2C)cn1` [Example 56, 5-(4-Chloro-6-methoxy-pyridin-3-yl)-N-(2,6-difluoro-phenyl)-1-methyl-1H-pyrazole-3-carboxylic acid amide], the inhibition at 10 µM in experiment [1] (setting [3]) is greater than 70%. Further, in experiment [2], the IC50 was in the range of 0.5 to 1 µM.

With `CCc1cc(C)c(-c2cc(C(=O)Nc3c(F)cncc3F)nn2C)cn1` [Example 7, N-(3,5-Difluoro-pyridin-4-yl)-5-(6-ethyl-4-methyl-pyridin-3-yl)-1-methyl-1H-pyrazole-3-carboxylic acid amide], the inhibition at 10 µM is 61% in experiment [1] (setting [4]) and 50 to 70% in experiment [1] (setting [3]). The 50% inhibitory concentration (IC50) in experiment [2] is 1 to 5 µM.

As for `Cc1cc(C2CC2)ncc1-c1cc(C(=O)Nc2c(F)cccc2F)nn1C` [Example 8, 5-(6-Cyclopropyl-4-methyl-pyridin-3-yl)-N-(2,6-difluoro-phenyl)-1-methyl-1H-pyrazole-3-carboxylic acid amide], the inhibition at 10 µM in experiment [1] (setting [4]) was 81%; in experiment [1] (setting [3]), greater than 70%. Moreover, in experiment [2], the 50% inhibitory concentration (IC50) fell in the range of 1 to 5 µM.

In the case of `Cc1cc(OC(C)C)ncc1-c1cc(C(=O)Nc2c(F)cccc2F)nn1C` [Example 13, N-(2,6-Difluoro-phenyl)-5-(6-isopropoxy-4-methyl-pyridin-3-yl)-1-methyl-1H-pyrazole-3-carboxylic acid amide], the inhibition at 10 µM in experiment [1] (setting [4]) was 100%; in experiment [1] (setting [3]) it was greater than 70%. Moreover, the IC50 in experiment [2] lay within 0.5 to 1 µM.

With `CCc1cc(C)c(-c2cc(C(=O)Nc3c(F)cccc3F)nn2C)cn1` [Example 6, N-(2,6-Difluoro-phenyl)-5-(6-ethyl-4-methyl-pyridin-3-yl)-1-methyl-1H-pyrazole-3-carboxylic acid amide], the inhibition at 10 µM is 67% in experiment [1] (setting [4]) and greater than 70% in experiment [1] (setting [3]). In experiment [2], the IC50 was 1 to 5 µM.

In the case of `CCOc1ncc(-c2cc(C(=O)Nc3c(F)cncc3F)nn2C)c(C)c1F` [Example 36, N-(3,5-Difluoro-pyridin-4-yl)-5-(6-ethoxy-5-fluoro-4-methyl-pyridin-3-yl)-1-methyl-1H-pyrazole-3-carboxylic acid amide], the inhibition at 10 µM in experiment [1] (setting [3]) lay in the range of 50 to 70%. Also, the IC50 in experiment [2] lay within 1 to 5 µM.

As for `Cc1cc(OCC2CCC2)ncc1-c1cc(C(=O)Nc2c(F)cncc2F)nn1C` [Example 20, 5-[6-(Cyclobutyl-methoxy)-4-methyl-pyridin-3-yl]-N-(3,5-difluoro-pyridin-4-yl)-1-methyl-1H-pyrazole-3-carboxylic acid amide], the inhibition at 10 µM in experiment [1] (setting [4]) was 121%; in experiment [1] (setting [3]) it was greater than 70%. In addition, in experiment [2], the IC50 was less than 0.5 µM.

Consider `CCOc1cc(OCC)c(-c2cc(C(=O)Nc3c(F)cncc3F)nn2C)cn1` [Example 15, 5-(4,6-Diethoxy-pyridin-3-yl)-N-(3,5-difluoro-pyridin-4-yl)-1-methyl-1H-pyrazole-3-carboxylic acid amide], for which the inhibition at 10 µM in experiment [1] (setting [3]) is greater than 70%. Besides, the IC50 in experiment [2] is less than 0.5 µM.

As for `COc1cc(OCC2CC2)ncc1-c1cc(C(=O)Nc2c(F)cccc2F)nn1C` [Example 45, 5-[6-(Cyclopropyl-methoxy)-4-methoxy-pyridin-3-yl]-N-(2,6-difluoro-phenyl)-1-methyl-1H-pyrazole-3-carboxylic acid amide], in experiment [1] (setting [3]), the inhibition at 10 µM was greater than 70%. Moreover, the IC50 in experiment [2] is less than 0.5 µM.

On to `Cc1cc(OC(F)(F)F)ncc1-c1cc(C(=O)Nc2c(F)cncc2F)nn1C` [Example 11, N-(3,5-Difluoro-pyridin-4-yl)-1-methyl-5-[4-methyl-6-(trifluoromethyloxy)-pyridin-3-yl]-1H-pyrazole-3-carboxylic acid amide], for which the inhibition at 10 µM was 94% in experiment [1] (setting [4]) and greater than 70% in experiment [1] (setting [3]). Besides, in experiment [2], the IC50 is less than 0.5 µM.

`COc1cc(OC)c(-c2cc(C(=O)Nc3c(F)cccc3F)n[nH]2)cn1` [Example 69, N-(2,6-Difluoro-phenyl)-5-(4,6-dimethoxy-pyridin-3-yl)-1H-pyrazole-3-carboxylic acid amide hydrochloride]: in experiment [1] (setting [3]), the inhibition at 10 µM was greater than 70%. Also, the IC50 in experiment [2] was in the range of 1 to 5 µM.

As for `COc1cc(OCC2COC2)ncc1-c1cc(C(=O)Nc2c(F)cccc2F)nn1C` [Example 51, N-(2,6-Difluoro-phenyl)-5-[4-methoxy-6-(oxetan-3-yl-methoxy)-pyridin-3-yl]-1-methyl-1H-pyrazole-3-carboxylic acid amide], in experiment [1] (setting [3]), the inhibition at 10 µM is 50 to 70%. In addition, the IC50 in experiment [2] is 1 to 5 µM.

Take `COc1cc(OC)c(-c2c(C)c(C(=O)Nc3c(F)cncc3F)nn2C)cn1` [Example 65, N-(3,5-Difluoro-pyridin-4-yl)-5-(4,6-dimethoxy-pyridin-3-yl)-1,4-dimethyl-1H-pyrazole-3-carboxylic acid amide]: in experiment [1] (setting [3]), the inhibition at 10 µM is greater than 70%. Moreover, the IC50 in experiment [2] is 1 to 5 µM.

As for `COc1cc(OC(F)F)ncc1-c1cc(C(=O)Nc2c(F)cncc2F)nn1C` [Example 44, 5-[6-(Difluoro-methoxy)-4-methoxy-pyridin-3-yl]-N-(3,5-difluoro-pyridin-4-yl)-1-methyl-1H-pyrazole-3-carboxylic acid amide], in experiment [1] (setting [3]), the inhibition at 10 µM was greater than 70%. For the same compound, in experiment [2], the IC50 is less than 0.5 µM.

Turning to `CCOc1cc(C(F)(F)F)c(-c2cc(C(=O)Nc3c(F)cccc3F)nn2C)cn1` [Example 32, N-(2,6-Difluoro-phenyl)-5-[6-ethoxy-4-(trifluoromethyl)-pyridin-3-yl]-1-methyl-1H-pyrazole-3-carboxylic acid amide], the inhibition at 10 µM in experiment [1] (setting [3]) was greater than 70%. Further, the IC50 in experiment [2] is 0.5 to 1 µM.

With `CCOc1ccc(-c2cc(C(=O)Nc3c(F)cccc3F)nn2C)c(C)n1` [Example 5, N-(2,6-Difluoro-phenyl)-5-(6-ethoxy-2-methyl-pyridin-3-yl)-1-methyl-1H-pyrazole-3-carboxylic acid amide], the inhibition at 10 µM in experiment [1] (setting [3]) was greater than 70%. The IC50 in experiment [2] lay within 1 to 5 µM.

On to `Cc1cc(OC2CC2)ncc1-c1cc(C(=O)Nc2c(F)cccc2F)nn1C` [Example 10, 5-(6-Cyclopropyloxy-4-methyl-pyridin-3-yl)-N-(2,6-difluoro-phenyl)-1-methyl-1H-pyrazole-3-carboxylic acid amide], for which the inhibition at 10 µM is 83% in experiment [1] (setting [4]) and greater than 70% in experiment [1] (setting [3]). In addition, in experiment [2], the IC50 lay within 0.5 to 1 µM.

In the case of `CCOc1cc(C(F)(F)F)c(-c2cc(C(=O)Nc3c(F)cncc3F)nn2C)cn1` [Example 31, N-(3,5-Difluoro-pyridin-4-yl)-5-[6-ethoxy-4-(trifluoromethyl)-pyridin-3-yl]-1-methyl-1H-pyrazole-3-carboxylic acid amide], the inhibition at 10 µM in experiment [1] (setting [3]) is greater than 70%. For the same compound, the IC50 in experiment [2] is 1 to 5 µM.
